The record followed here is US7109243B2 (IRM LLC, priority 2003, dated 2006).

In one test the target is Cathepsin S (Homo sapiens, UniProt P25774). Description: Cathepsin S inhibition assay (fluorogenic peptide substrate). The class given is biochemical. Conditions: Table II, compounds of Formula I; read-out: Ki Cat. S. The method, then:
“Inhibition constant”, Ki, is the dissociation constant of the enzyme-inhibitor complex, or the reciprocal of the binding affinity of the inhibitor to the enzyme. […] The inhibited rates are then fit by nonlinear regression to the following equation: […]
The assumption being made for the classical inhibition described above is that the free inhibitor concentration is equal to the total inhibitor concentration.
Kinetic measurements are performed in a total reaction volume of 30 μl in 384-well microtiter plates. […] The reactions are initiated by adding the substrate, acetyl-histidine-proline-valine-lysine-amino carbamoyl coumarin, to a final concentration of 50 μM. The rate of substrate hydrolysis is measured by monitoring the increase in fluorescence at an excitation wavelength of 380 nm and an emission wavelength of 450 nm that results from cleavage of the aniline bond in the substrate by the enzyme.

The target in the next test is T1, Cathepsin K (Homo sapiens, UniProt P43235).
T1 sequence (P43235 115-329): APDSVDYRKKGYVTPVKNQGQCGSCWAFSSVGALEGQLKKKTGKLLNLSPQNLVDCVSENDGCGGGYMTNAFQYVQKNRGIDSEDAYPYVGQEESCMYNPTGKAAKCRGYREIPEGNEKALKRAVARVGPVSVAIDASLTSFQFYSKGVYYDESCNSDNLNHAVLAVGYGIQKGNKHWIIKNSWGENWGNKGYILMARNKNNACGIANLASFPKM
As to the kind of experiment: Cathepsin K inhibition assay (fluorogenic peptide substrate); selectivity ratio vs cathepsin S. The class given is biochemical. The settings on record: ratio of cathepsin K inhibition constant to cathepsin S inhibition constant; Table II. The method, then: The optimal substrate for cathepsin K, acetyl-lysine-histidine-proline-lysine-amino carbamoyl coumarin, was identified from screening a combinatorial library of fluorogenic peptide substrates (Harris, J. L., B. J. Backes, et al., Proc Natl Acad Sci USA 2000, 97(14), 7754-9). Kinetic measurements are performed in a total reaction volume of 30 μl in 384-well microtiter plates. […] The reactions are initiated by adding the substrate, acetyl-lysine-histidine-proline-lysine-amino carbamoyl coumarin, to a final concentration of 40 μM. The rate of substrate hydrolysis is measured by monitoring the increase in fluorescence at an excitation wavelength of 380 nm and an emission wavelength of 450 nm that results from cleavage of the aniline bond in the substrate by the enzyme. The apparent inhibition constants for the compounds are determined from the enzyme progress curves ([…]. Elrod, et al., Anal Biochem 2000, 286(1), 45-50) and are then used to calculate the inhibition constants for competitive inhibitors. Selectivity for cathepsin S in the presence of cathepsin isozymes was determined by the ratio of the cathepsin isozyme inhibition constant of a compound of the present invention to the cathepsin S inhibition constant of the same compound.

Sequence of Cathepsin S (P25774 115-331, species assumed): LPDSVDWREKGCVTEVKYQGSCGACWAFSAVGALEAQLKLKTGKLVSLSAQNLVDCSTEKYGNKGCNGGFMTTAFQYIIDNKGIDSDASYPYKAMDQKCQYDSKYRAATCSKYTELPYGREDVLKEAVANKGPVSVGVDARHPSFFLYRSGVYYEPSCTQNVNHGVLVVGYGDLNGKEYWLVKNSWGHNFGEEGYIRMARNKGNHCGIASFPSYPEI

A word on the Ki: it is a measure of affinity in units of concentration, obtained from inhibition or displacement. Turning to `Cc1ccc(-c2ccc(C(=O)N[C@@H](CC3CCCCC3)C(=O)NCCNc3ccc(OC(F)(F)F)cc3)s2)cc1` [Compound 42, 5-p-Tolyl-thiophene-2-carboxylic acid (S)-{2-cyclohexyl-1-[2-(4-trifluoromethoxy-phenylamino)-ethylcarbamoyl]-ethyl}-amide], the Ki on Cathepsin S is < 1000 nM. Also, the “Selectivity for Cat. S over Cat. K” value at Cathepsin K is recorded as “+ (+, >10)”.
As for `O=C(N[C@@H](CC1CCCCC1)C(=O)NCCNc1ccc(OC(F)(F)F)cc1)c1ccc(Cn2cnc3ccccc32)cc1` [Compound 43, 4-Benzoimidazol-1-ylmethyl-N-{2-cyclohexyl-1-(S)-[2-(4-trifluoromethoxy-phenylamino)-ethylcarbamoyl]-ethyl}-benzamide], the Ki on Cathepsin S is < 100 nM. The “Selectivity for Cat. S over Cat. K” value at Cathepsin K was “+ (+, >10)”.
On to `COc1ccc(NCCNC(=O)[C@H](Cc2ccccc2)NC(=O)c2cnn(-c3ccc(Cl)cc3)c2C(F)(F)F)cc1` [Compound 44, (S)-1-(4-Chloro-phenyl)-5-trifluoromethyl-1H-pyrazole-4-carboxylic acid {1-[2-(4-methoxy-phenylamino)-ethylcarbamoyl]-2-phenyl-ethyl}-amide], for which the Ki at Cathepsin S is < 1000 nM. In addition, the “Selectivity for Cat. S over Cat. K” value on Cathepsin K is “++ (++, >100)”.
Regarding `COc1ccc(NCCNC(=O)[C@H](Cc2ccc(Oc3ccc(C)cc3)cc2)NC(=O)c2cccc(C)c2)cc1` [Compound 45, (S)-N-[1-[2-(4-Methoxy-phenylamino)-ethylcarbamoyl]-2-(4-p-tolyloxy-phenyl)-ethyl]-3-methyl-benzamide], the Ki at Cathepsin S is < 100 nM. For the same molecule, the “Selectivity for Cat. S over Cat. K” value at Cathepsin K is on record as “+++ (+++, >1000)”.
In the case of `O=C(Cn1cnnn1)N[C@@H](CC1CCCCC1)C(=O)NCCNc1ccc(OC(F)(F)F)cc1` [Compound 46, 3-Cyclohexyl-2-(S)-(2-tetrazol-1-yl-acetylamino)-N-[2-(4-trifluoromethoxy-phenylamino)-ethyl]-propionamide], the inhibition constant Ki at Cathepsin S was < 1000 nM. For the same molecule, the “Selectivity for Cat. S over Cat. K” value at Cathepsin K was “++ (++, >100)”.
In the case of `Cc1cccc(-c2ccc(C(=O)N[C@@H](CC3CCCCC3)C(=O)NCCNc3ccc(OC(F)(F)F)cc3)s2)c1` [Compound 47, 5-m-Tolyl-thiophene-2-carboxylic acid (S)-{2-cyclohexyl-1-[2-(4-trifluoromethoxy-phenylamino)-ethylcarbamoyl]-ethyl}-amide], on Cathepsin S, the inhibitory constant (Ki) was < 100 nM. At Cathepsin K, the “Selectivity for Cat. S over Cat. K” value is recorded as “+++ (+++, >1000)”.
As to `Cc1cc2ncc(C(=O)N[C@@H](CC3CCCCC3)C(=O)NCCNc3ccc(OC(F)(F)F)cc3)c(C)n2n1` [Compound 48, 2,7-Dimethyl-pyrazolo[1,5-a]pyrimidine-6-carboxylic acid (S)-{2-cyclohexyl-1-[2-(4-trifluoromethoxy-phenylamino)-ethylcarbamoyl]-ethyl}-amide], on Cathepsin S, the Ki is < 1000 nM. Besides, on Cathepsin K, the “Selectivity for Cat. S over Cat. K” value is listed as “++ (++, >100)”.
Consider `Cc1oc(S(=O)(=O)N2CCOCC2)cc1C(=O)N[C@@H](CC1CCCCC1)C(=O)NCCNc1ccc(OC(F)(F)F)cc1` [Compound 49, 2-Methyl-5-(morpholine-4-sulfonyl)-furan-3carboxylic acid (S)-{2-cyclohexyl-1-[2-(4-trifluoromethoxy-phenylamino)-ethylcarbamoyl]-ethyl}-amide], for which, on Cathepsin S, the inhibition constant Ki was < 100 nM. Besides, at Cathepsin K, the “Selectivity for Cat. S over Cat. K” value is on record as “++ (++, >100)”.
In the case of `O=C(N[C@@H](CC1CCCCC1)C(=O)NCCNc1ccc(OC(F)(F)F)cc1)c1ccc(-c2cccc(C(F)(F)F)c2)s1` [Compound 50, 5-(3-Trifluoromethyl-phenyl)-thiophene-2-carboxylic acid (S)-{2-cyclohexyl-1-[2-(4-trifluoromethoxy-phenylamino)-ethylcarbamoyl]-ethyl}-amide], the Ki at Cathepsin S is < 100 nM. Moreover, at Cathepsin K, the “Selectivity for Cat. S over Cat. K” value is recorded as “+++ (+++, >1000)”.
As to `Cc1cccc(-c2ccc(C(=O)N[C@@H](CC3CCCCC3)C(=O)NCCNc3ccc(OC(F)(F)F)cc3)o2)c1` [Compound 51, 5-m-Tolyl-furan-2-carboxylic acid (S)-{2-cyclohexyl-1-[2-(4-trifluoromethoxy-phenylamino)-ethylcarbamoyl]-ethyl}-amide], the Ki on Cathepsin S is < 100 nM. The “Selectivity for Cat. S over Cat. K” value on Cathepsin K is “+++ (+++, >1000)”.
`COc1ccc(NCCNC(=O)[C@H](Cc2ccccc2)NC(=O)c2cccc3c2OCC3)cc1` [Compound 52, (S)-2,3-Dihydro-benzofuran-7-carboxylic acid {1-[2-(4-methoxy-phenylamino)-ethylcarbamoyl]-2-phenyl-ethyl}-amide]: the inhibitory constant (Ki) on Cathepsin S is < 10000 nM. Moreover, the “Selectivity for Cat. S over Cat. K” value on Cathepsin K is listed as “+ (+, >10)”.
Take `CS(=O)(=O)c1ccc(C(=O)N[C@@H](CC2CCCCC2)C(=O)NCCNc2ccc(OC(F)(F)F)cc2)s1` [Compound 53, 5-Methanesulfonyl-thiophene-2-carboxylic acid (S)-{2-cyclohexyl-1-[2-(4-trifluoromethoxy-phenylamino)-ethylcarbamoyl]-ethyl}-amide]: on Cathepsin S, the Ki is < 100 nM. For the same molecule, the “Selectivity for Cat. S over Cat. K” value on Cathepsin K is reported as “+++ (+++, >1000)”.
With `O=C(N[C@@H](CC1CCCCC1)C(=O)NCCNc1ccc(OC(F)(F)F)cc1)c1csc(-c2ccccc2)n1` [Compound 54, 2-Phenyl-thiazole-4-carboxylic acid (S)-{2-cyclohexyl-1-[2-(4-trifluoromethoxy-phenylamino)-ethylcarbamoyl]-ethyl}-amide], at Cathepsin S, the Ki was < 100 nM. For the same molecule, the “Selectivity for Cat. S over Cat. K” value on Cathepsin K is recorded as “+ (+, >10)”.
For the molecule `COc1ccc(NCCNC(=O)[C@H](Cc2ccccc2)NC(=O)c2cccc(C#N)c2)cc1` [Compound 55, (S)-3-Cyano-N-{1-[2-(4-methoxy-phenylamino)-ethylcarbamoyl]-2-phenyl-ethyl}-benzamide], the Ki on Cathepsin S is < 1000 nM. In addition, on Cathepsin K, the “Selectivity for Cat. S over Cat. K” value was “++ (++, >100)”.
With `COc1ccc(NCCNC(=O)[C@H](Cc2ccccc2)NC(=O)c2cccc(-c3csc(C)n3)c2)cc1` [Compound 56, (S)-N-{1-[2-(4-Methoxy-phenylamino)-ethylcarbamoyl]-2-phenyl-ethyl}-3-(2-methyl-thiazol-4-yl)-benzamide], the Ki at Cathepsin S was < 1000 nM. The “Selectivity for Cat. S over Cat. K” value on Cathepsin K was “++ (++, >100)”.
With `COc1ccc(NCCNC(=O)[C@H](Cc2ccccc2)NC(=O)Nc2ccccc2)cc1` [Compound 57, (S)-N-[2-(4-Methoxy-phenylamino)-ethyl]-3-phenyl-2-(3-phenyl-ureido)-propionamide], the Ki at Cathepsin S is < 1000 nM. The “Selectivity for Cat. S over Cat. K” value at Cathepsin K is recorded as “+ (+, >10)”.
Take `O=C(NCCNc1ccc(OC(F)(F)F)cc1)[C@H](CC1CCCCC1)NC(=O)[C@@H](O)c1ccccc1` [Compound 58, 3-Cyclohexyl-2-(S)-(2-(S)-hydroxy-2-phenyl-acetylamino)-N-[2-(4-trifluoromethoxy-phenylamino)-ethyl]-propionamide]: on Cathepsin S, the inhibition constant Ki is < 100 nM. The “Selectivity for Cat. S over Cat. K” value at Cathepsin K is reported as “++ (++, >100)”.
`O=C(N[C@@H](CC1CCCCC1)C(=O)NCCNc1ccc(OC(F)(F)F)cc1)c1onc2ccccc12` [Compound 59, Benzo[c]isoxazole-3-carboxylic acid (S)-{2-cyclohexyl-1-[2-(4-trifluoromethoxy-phenylamino)-ethylcarbamoyl]-ethyl}-amide]: the Ki at Cathepsin S is < 1000 nM. Besides, the “Selectivity for Cat. S over Cat. K” value at Cathepsin K was “++ (++, >100)”.
For `O=C(N[C@@H](CC1CCCCC1)C(=O)NCCNc1ccc(OC(F)(F)F)cc1)c1ccc(OC(F)F)cc1` [Compound 60, N-(S)-{2-cyclohexyl-1-[2-(4-trifluoromethoxy-phenylamino)-ethylcarbamoyl]-ethyl}-4-difluoromethoxy-benzamide], the inhibition constant Ki at Cathepsin S is < 100 nM. For the same molecule, the “Selectivity for Cat. S over Cat. K” value at Cathepsin K is on record as “+ (+, >10)”.
Consider `CC(C)Oc1ccc(C(=O)N[C@@H](CC2CCCCC2)C(=O)NCCNc2ccc(OC(F)(F)F)cc2)cc1` [Compound 61, N-(S)-{2-cyclohexyl-1-[2-(4-trifluoromethoxy-phenylamino)-ethylcarbamoyl]-ethyl}-4-isopropoxy-benzamide], for which the Ki at Cathepsin S was < 1000 nM. At Cathepsin K, the “Selectivity for Cat. S over Cat. K” value is recorded as “+ (+, >10)”.
In the case of `O=C(N[C@@H](CC1CCCCC1)C(=O)NCCNc1ccc(OC(F)(F)F)cc1)c1ccc(-c2ccccc2)s1` [Compound 62, 5-Phenyl-thiophene-2-carboxylic acid (S)-{2-cyclohexyl-1-[2-(4-trifluoromethoxy-phenylamino)-ethylcarbamoyl]-ethyl}-amide], the Ki at Cathepsin S is < 100 nM. Also, the “Selectivity for Cat. S over Cat. K” value on Cathepsin K is listed as “++ (++, >100)”.
